Experimental data published in ChEMBL document CHEMBL5725219, “Compounds and methods for skin repair” (2017).

How the values were obtained:
[1] = molecular target: Prostaglandin E2 receptor EP2 subtype (Homo sapiens, UniProt P43116); assay: (§1) FLIPR Assay: Cells were seeded at a density of 5×10^4 cells per well in Biocoat® Poly-D-lysine-coated black-wall, clear-bottom 96-well plates (Becton-Dickinson) and allowed to attach overnight in an incubator at 37° C. Cells were then washed two times with HBSS-HEPES buffer (Hanks Balanced Salt Solution without bicarbonate and phenol red, 20 mM HEPES, pH 7.4) using a Denley Cellwash plate washer (Labsystems). After 45 minutes of dye-loading in the dark, using the calcium-sensitive dye Fluo-4 AM at a final concentration of […], plates were washed four times with HBSS-HEPES buffer to remove excess dye leaving […] in each well. Plates were re-equilibrated to 37° C. for a few minutes.Cells were excited with an Argon laser at 488 nm, and emission was measured through a 510-570 nm bandwidth emission filter (FLIPR™, Molecular Devices, Sunnyvale, Calif.). Drug solution was added in a 50 μl volume to each well to give the desired final concentration. The peak increase in fluorescence intensity was recorded for each well. On each plate, four wells each served as negative (HBSS-HEPES buffer) and positive controls (standard agonists: BW245C (hDP); PGE2 (hEP1; hEP2/Gqs5; hEP3A/Gqi5; hEP4/Gqs5); PGF2a (hFP); carbacyclin (hIP); U-46619 (hTP), depending on receptor). The peak fluorescence change in each drug-containing well was then expressed relative to the controls.
Prostaglandin E2 receptor EP2 subtype, sequence (P43116 whole entry): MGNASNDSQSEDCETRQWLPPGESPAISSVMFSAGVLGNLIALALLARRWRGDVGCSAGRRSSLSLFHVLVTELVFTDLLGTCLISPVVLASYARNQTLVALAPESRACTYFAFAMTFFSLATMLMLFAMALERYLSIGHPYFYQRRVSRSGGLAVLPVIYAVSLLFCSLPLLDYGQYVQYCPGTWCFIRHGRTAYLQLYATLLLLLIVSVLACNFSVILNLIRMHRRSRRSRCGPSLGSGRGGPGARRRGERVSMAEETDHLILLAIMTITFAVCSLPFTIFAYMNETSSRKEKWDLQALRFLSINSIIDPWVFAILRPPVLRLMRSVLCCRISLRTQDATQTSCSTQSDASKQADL

[2] = molecular target: T1, Prostaglandin E2 receptor EP4 subtype (Homo sapiens, UniProt P35408); assay: as §1
T1 sequence (P35408 whole entry): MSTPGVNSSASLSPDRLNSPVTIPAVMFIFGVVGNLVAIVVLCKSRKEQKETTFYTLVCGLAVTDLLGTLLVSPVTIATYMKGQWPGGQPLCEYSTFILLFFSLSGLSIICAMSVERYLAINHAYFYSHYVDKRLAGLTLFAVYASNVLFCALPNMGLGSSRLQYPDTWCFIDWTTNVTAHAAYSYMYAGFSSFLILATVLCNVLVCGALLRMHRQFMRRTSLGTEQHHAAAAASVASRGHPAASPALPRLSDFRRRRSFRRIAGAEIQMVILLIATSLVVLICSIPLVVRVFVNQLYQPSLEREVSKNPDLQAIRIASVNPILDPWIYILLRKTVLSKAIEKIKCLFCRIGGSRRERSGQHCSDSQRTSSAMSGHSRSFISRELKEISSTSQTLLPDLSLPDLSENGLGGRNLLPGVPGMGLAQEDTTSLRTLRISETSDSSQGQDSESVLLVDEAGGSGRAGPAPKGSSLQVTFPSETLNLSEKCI

[3] = molecular target: T1, Prostaglandin E2 receptor EP4 subtype; assay: Radioligand Binding Assay: HEK-293 cells stably expressing the human or feline FP receptor, or EP1, EP2, or EP4 receptors were washed with TME buffer, scraped from the bottom of the flasks, and homogenized for 30 sec using a Brinkman PT 10/35 polytron. TME buffer was added to achieve a final 40 ml volume in the centrifuge tubes (the composition of TME is 100 mM TRIS base, 20 mM MgCl2, […]; 10N HCl is added to achieve a pH of 7.4).The cell homogenate was centrifuged at 19000 r.p.m. for 20 min at 4° C. using a Beckman Ti-60 rotor. The resultant pellet was resuspended in TME buffer to give a final 1 mg/ml protein concentration, as determined by Biorad assay. Radioligand binding competition assays vs. [3H-]17-phenyl PGF2a (5 nM) were performed in a 100 μl volume for 60 min. Binding reactions were started by adding plasma membrane fraction. The reaction was terminated by the addition of 4 ml ice-cold TRIS-HCl buffer and rapid filtration through glass fiber GF/B filters using a Brandel cell harvester. The filters were washed 3 times with ice-cold buffer and oven dried for one hour.[3H] PGE2 (specific activity 180 Ci mmol) was used as the radioligand for EP receptors. [3H] 17-phenyl PGF2a was employed for FP receptor binding studies. Binding studies employing EP1, EP2, EP4 and FP receptors were performed in duplicate in at least three separate experiments. A 200 μl assay volume was used. […]

Compound	EC50 [1] [µM]	Ki [1] [µM]	Ki [2] [µM]	EC50 [2] [µM]	Ki [3] [µM]
O=C(O)c1ccc(CCc2cccc3c2N(Cc2cc(C(F)(F)F)cc(C(F)(F)F)c2)CC3)cc1	0.011	0.0003	1.2		
O=C(O)c1ccc(CCc2cccc3c2N(Cc2ccc(F)cc2)CC3)cc1	0.029	0.014	0.616	0.45	
O=C(O)c1ccc(CCc2cccc3c2N(CCc2ccccc2)CC3)cc1		0.202	1.09	1.58	
O=C(O)c1ccc(CCc2cccc3c2N(Cc2cccc(C(F)(F)F)c2)CC3)cc1	0.015	0.007	0.424	0.187	
COc1cc(OC)cc(C(=O)N2CCc3cccc(CCc4ccc(C(=O)O)cc4)c32)c1	0.183	0.821	4.86		
COc1cccc(CCN2CCc3cccc(CCc4ccc(C(=O)O)cc4)c32)c1		0.041	0.373	1.26	
COc1cccc(Cn2ccc3cccc(CCc4ccc(C(=O)O)cc4)c32)c1		0.259	1.68	1.62	
O=C(O)c1ccc(CCc2cccc3c2N(Cc2cccc(F)c2)CC3)cc1	0.035	0.038	0.897	0.123	
COc1cccc(CN2CCc3cccc(CCc4ccc(C(=O)O)s4)c32)c1		0.05	0.714		
COc1cccc(CN2Cc3cccc(CCc4ccc(C(=O)O)cc4)c3C2)c1		6.88	9.56	> 10	
O=C(O)c1ccc(CCc2cccc3c2N(Cc2cc(F)cc(F)c2)CC3)cc1	0.012	0.012	0.412	0.205	
COc1cc(CN2CCc3cc(F)cc(CCc4ccc(C(=O)O)cc4)c32)cc(OC)c1		0.014	0.002	0.002	
COc1cc(OC)cc(N2Cc3cccc(CCc4ccc(C(=O)O)cc4)c3C2)c1			3.91		
COc1cccc(CCN2Cc3cccc(CCc4ccc(C(=O)O)cc4)c3C2)c1		1.13	> 10	> 10	
COc1cccc(CC(=O)N2CCc3cccc(CCc4ccc(C(=O)O)cc4)c32)c1		> 10	0.449	> 10	
COc1cccc(CN2CCc3cccc(CCc4ccc(C(=O)O)cc4)c32)c1		0.023	0.123	0.178	
COc1cccc(S(=O)(=O)N2CCc3cccc(CCc4ccc(C(=O)O)cc4)c32)c1		0.571	> 10	> 10	
COc1cc(CO)cc(CN2CCc3cccc(CCc4ccc(C(=O)O)s4)c32)c1					0.154
COc1cc(CO)cc(S(=O)(=O)N2CCc3cccc(CCc4ccc(C(=O)O)cc4)c32)c1				> 10	
